# Laboratory results as given in PMC9467556, “Identification of novel pyrrolopyrimidine and pyrrolopyridine derivatives as potent ENPP1 inhibitors” (Journal of Enzyme Inhibition and Medicinal Chemistry, 2022).
# Where a name gives a salt, the structure may show the parent alone.
# Columns and labels:
# [1] = liver microsomal stability; type: in vitro ADME, human; settings: % remaining during 30 min at 1 µM
# [2] = liver microsomal stability; type: in vitro ADME, rat; settings: % remaining during 30 min at 1 µM
# [3] = system: phosphorylation of IRF3 in THP-1 cells; test: western blot of STING downstream signalling; type: cell-based, human; settings: cGAMP (1 μg/mL) then 18p, 6 h
# Experimental: (§1) To evaluate whether 18p induced desired immune response via activation of STING pathway, we investigated the activation of downstream effector proteins, IRF3 and STAT1 that were known as major regulatory proteins of STING and IFN-β, respectively.
# (§2) Figure 6. Western blot analysis for STING downstream signalling pathway. THP-1 cells were treated with cGAMP (1 μg/mL) first, and then treated with either DMSO or 18p at indicated concentration for 6 h. Tubulin was used as a loading control.
# (§3) Cells were washed by PBS and harvested with RIPA buffer (Bioseasang). After centrifugation with 20,000 × g for 20 min at 4 °C. Cell lysates were separated by SDS-polyacrylamide gel electrophoresis and transferred on PVDF membranes through the Trans-Blot Turbo Transfer System (Bio-Rad). The membranes were blocked in 5% BSA in TBST for 1 h at room temperature and followed by incubation with primary antibody solution for overnight. […] After washing with TBST, all antibodies were detected by anti-rabbit-HRP-linked secondary antibody (Cell signalling/no. 7074, 1:3000). β-Tubulin was used as a loading control for the amount of total protein. Luminescence signal was detected using ECL reagent and immunoreactive bands were captured with the ChemiDoc imaging systems (Bio-Rad).
# [4] = system: phosphorylation of STAT1 in THP-1 cells; test: western blot of STING downstream signalling; type: cell-based, human; settings: cGAMP (1 μg/mL) then 18p, 6 h
# Experimental: as §1, §2, §3
# [5] = system: IFN-β secretion in THP-1 cells; test: IFN-β cytokine release by ELISA; settings: co-treatment with cGAMP, 8 h
# Experimental: Extracellular secretion of IFN-β and IP-10 was measured by enzyme-linked immunosorbent assay (ELISA).
# THP-1 cells were seeded in 96 well plate and treated with the compounds for 8 h incubation. 100 μL of cell culture supernatant was harvested and analysed using manufactural protocols.
compound,measurement,setting,value
"CC1(CNS(N)(=O)=O)CCN(c2ncnc3[nH]ccc23)CC1 [18p, N-((4-Methyl-1-(7H-pyrrolo[2,3-d]pyrimidin-4-yl)piperidin-4-yl)methyl)methanesulfamide hydrochloride]",Microsomal stability (%) Human,[1],93%
same,Microsomal stability (%) Rat,[2],96%
same,phosphorylation of IRF3,[3],increased phosphorylation of IRF3 and STAT1 was observed in dose-dependent manner
same,phosphorylation of STAT1,[4],increased phosphorylation of IRF3 and STAT1 was observed in dose-dependent manner
same,IFN-β cytokine release,[5],secreted more cytokine than with cGAMP alone
